# Values of other authors in US20070232685A1, “CRYSTALLINE FORMS OF N-(BENZO[B]THIEN-3-YLMETHYL)-SULFAMIDE” (priority 2006, published 2007).
# System: carbonic anhydrase
# Settings: background statement on a known anticonvulsant; no method given
compound,measurement,value
CC1(C)O[C@@H]2[C@@H](CO[C@@]3(COS(N)(=O)=O)OC(C)(C)O[C@@H]23)O1 [Topiramate],carbonic anhydrase inhibition,single digit micromolar
